Data: patent publication USRE37781E1, “Substituted cyclic carbonyls and derivatives thereof useful as retroviral protease inhibitors” (DuPont Pharmaceuticals Company, priority 1991, dated 2002)
Where two headings read alike, the source gives them in different places.

Tests used:
HIV-1 (RF) in MT-2 cells = assay: microbe, parasite or virus in culture; format: cell-based
Outline: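 HIV-1 laboratory strains (RF, MN, IIIB) grown in H9 cells in RPMI 1640 with 5% FCS; infections in MT-2 cells. Viral RNA quantified by hybridization with biotinylated gag/pol capture probes on streptavidin plates and alkaline phosphatase-conjugated reporter probes; BH10 gag-pol in vitro transcripts serve as RNA standards.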

[1] = molecular target: single-chain tethered dimer of HIV protease (Human immunodeficiency virus 1, UniProt P04585); assay: biochemical; format: biochemical; design: fused on or other part: A second copy of the same protease unit is joined to the first by a short peptide tether, giving one polypeptide
[2] = HIV RNA assay, HIV-1 infected MT-2 cells, Table 2d
[3] = HIV protease inhibition, HPLC method, Table 2d, read-out: HPLC K1
[4] = Table 2d, HIV protease inhibition, HPLC method, read-out: HPLC K1
[5] = Human immunodeficiency virus 1, MT2, 48 h, Table 2d, HIV RNA assay, read-out: IC90
[6] = read-out: HPLC K1, Table 2d, HIV protease inhibition, HPLC method
[7] = Human immunodeficiency virus 1, MT2, 48 h, Table 2d, class symbols, read-out: IC90
[8] = read-out: HPLC K1, Table 2d, class symbols
[9] = Table 2d, class symbols, read-out: HPLC K1

`COC(=O)c1ccc(CN2C(=O)N(Cc3ccc(C(=O)OC)cc3)C(Cc3ccc(F)c(F)c3)C(O)C(O)C2Cc2ccc(F)c(F)c2)cc1` (stereo not drawn) [20Z] was tested, and the IC90 (HIV-1 (RF) in MT-2 cells; Table 2i) was “+++ (+++=<10 μg/mL)” and the Ki ([1]; Table 2i, read-out: HPLC Ki) was 10 to 1000 nM.

With `Cl.Cl.O=C(NCCCCCN1C(=O)N(CCCCCNC(=O)c2ccncc2)C(Cc2ccccc2)C(O)C(O)C1Cc1ccccc1)c1ccncc1` (stereo not drawn) [15FA] the IC90 (HIV-1 (RF) in MT-2 cells; [2]) was “+++ (+++=<10 μg/mL)” and the Ki [1, 3] was 10 to 1000 nM.

For `O=C1N(Cc2ccc3[nH]nnc3c2)C(Cc2ccccc2)C(O)C(O)C(Cc2ccccc2)N1CC1CC1` (stereo not drawn) [15DP], the IC90 (HIV-1 (RF) in MT-2 cells; Table 2d, HIV RNA assay) was “+++ (+++=<10 μg/mL)” and the Ki [1, 4] was less than 10 nM.

With `N#Cc1cccc(CN2C(=O)N(Cc3ccc(O)cc3)C(Cc3ccccc3)C(O)C(O)C2Cc2ccccc2)c1` (stereo not drawn) [Example 15AQ] the IC90 (HIV-1 (RF) in MT-2 cells; [5]) was less than 10 µg/mL and the Ki [1, 6] was less than 10 nM.

`N#Cc1cccc(CN2C(Cc3ccccc3)C(O)C(O)C(Cc3ccccc3)N(Cc3cccc(C#N)c3)S2(=O)=O)c1` (stereo not drawn) [23Y] was tested, and the IC90 (HIV-1 (RF) in MT-2 cells; Table 2m) was “+++ (+++=<10 μg/mL)” and the Ki ([1]; Table 2m, read-out: HPLC Ki) was 10 to 1000 nM.

`CNc1n[nH]c2ccc(CN3C(=O)N(Cc4ccc5[nH]nc(NC)c5c4)C(Cc4ccccc4)C(O)C(O)C3Cc3ccccc3)cc12` (stereo not drawn) [15DH] was tested, and the IC90 (HIV-1 (RF) in MT-2 cells; Table 2d, HIV RNA assay) was “+++ (+++=<10 μg/mL)” and the Ki [1, 4] was less than 10 nM.

`O=C1N(Cc2cccc(OCCO)c2)C(Cc2ccccc2)C(O)C(O)C(Cc2ccccc2)N1Cc1cccc(OCCO)c1` (stereo not drawn) [10Y] gave an IC90 (HIV-1 (RF) in MT-2 cells; [7]) of less than 10 µg/mL and a Ki [1, 8] of less than 10 nM.

With `NC(=O)Sc1cccc(CN2C(=O)N(Cc3cccc(SC(N)=O)c3)C(Cc3ccccc3)C(O)C(O)C2Cc2ccccc2)c1` (stereo not drawn) [Example 12Q] the IC90 (HIV-1 (RF) in MT-2 cells; Table 2d, class symbols) was “+ (+=>100 μg/mL)” and the Ki [1, 9] was less than 10 nM.

In the case of `O=C1NC(Cc2ccccc2)C(O)C(O)C(Cc2ccccc2)N1` (stereo not drawn) [Example 13P], the IC90 (HIV-1 (RF) in MT-2 cells; Table 2d, class symbols) is reported as “+ (+=>100 μg/mL)” and the Ki [1, 9] is reported as greater than 1000 nM.

In the case of `CNCC(=O)NCCCCCN1C(=O)N(CCCCCNC(=O)CNC)C(Cc2ccccc2)C(O)C(O)C1Cc1ccccc1.Cl.Cl` (stereo not drawn) [15EZ], the IC90 (HIV-1 (RF) in MT-2 cells; [2]) is reported as “++/+ (The ++/+ is used in the cases where an IC90 was determined to be >50 μg/mL)” and the Ki [1, 3] is reported as 10 to 1000 nM.

`O=C(NCc1cccnc1)c1cccc(CN2C(=O)N(Cc3cccc(-c4cc[nH]n4)c3)C(Cc3ccccc3)C(O)C(O)C2Cc2ccccc2)c1` (stereo not drawn) [Example 15BZ] showed an IC90 (HIV-1 (RF) in MT-2 cells; [5]) of less than 10 µg/mL and a Ki [1, 6] of less than 10 nM.

For `O=C1N(Cc2cccc(-c3cn[nH]c3)c2)C(Cc2ccccc2)C(O)C(O)C(Cc2ccccc2)N1Cc1cccc(-c2cn[nH]c2)c1` (stereo not drawn) [Example 15BN], the IC90 (HIV-1 (RF) in MT-2 cells; [5]) was less than 10 µg/mL and the Ki [1, 6] was less than 10 nM.

With `O=C1N(Cc2cccc(C(=O)C(F)(F)F)c2)C(Cc2ccccc2)C(O)C(O)C(Cc2ccccc2)N1Cc1cccc(C(=O)C(F)(F)F)c1` (stereo not drawn) [Example 15XM] the IC90 (HIV-1 (RF) in MT-2 cells; [5]) was less than 10 µg/mL and the Ki [1, 6] was less than 10 nM.

In the case of `O=C1N(Cc2ccccc2)C(Cc2ccccc2)C(O)C(O)C(Cc2ccccc2)N1Cc1ccc2[nH]nnc2c1` (stereo not drawn) [15DN], the IC90 (HIV-1 (RF) in MT-2 cells; Table 2d, HIV RNA assay) is reported as “+++ (+++=<10 μg/mL)” and the Ki [1, 4] is reported as less than 10 nM.

For `O=S1(=O)N(Cc2ccc(O)cc2)C(Cc2ccccc2)C(O)C(O)C(Cc2ccccc2)N1Cc1ccc(O)cc1` (stereo not drawn) [23K], the IC90 (HIV-1 (RF) in MT-2 cells; Table 2m) was “+++ (+++=<10 μg/mL)” and the Ki ([1]; Table 2m, read-out: HPLC Ki) was less than 10 nM.

In the case of `NC(=NO)c1cccc(CN2C(=O)N(Cc3cccc(C(N)=NO)c3)C(Cc3ccccc3)C(O)C(O)C2Cc2ccccc2)c1` (stereo not drawn) [20V], the IC90 (HIV-1 (RF) in MT-2 cells; Table 2i) is reported as “+++ (+++=<10 μg/mL)” and the Ki ([1]; Table 2i, read-out: HPLC Ki) is reported as less than 10 nM.

In the case of `NC(=NO)c1cccc(CN2C(=S)N(Cc3ccc(CO)cc3)C(Cc3ccccc3)C(O)C(O)C2Cc2ccccc2)c1` (stereo not drawn) [Example 27I], the IC90 (HIV-1 (RF) in MT-2 cells; Table 2q) is reported as “+++ (+++=<10 μg/mL)” and the Ki ([1]; Table 2q, read-out: HPLC Ki) is reported as less than 10 nM.

With `O=C1N(Cc2ccc3c(c2)NS(=O)(=O)N3)C(Cc2ccccc2)C(O)C(O)C(Cc2ccccc2)N1Cc1ccc2c(c1)NS(=O)(=O)N2` (stereo not drawn) [15CW] the IC90 (HIV-1 (RF) in MT-2 cells; Table 2d, HIV RNA assay) was “++ (++=10 to 100 μg/mL)” and the Ki [1, 4] was less than 10 nM.

In the case of `CCOC(=O)c1cccc(CN2C(=O)N(Cc3cccc(C(=O)OCC)c3)C(Cc3ccccc3)C(O)C(O)C2Cc2ccccc2)c1` (stereo not drawn) [10W], the IC90 (HIV-1 (RF) in MT-2 cells; Table 2d, class symbols) is reported as “+ (+=>100 μg/mL)” and the Ki [1, 9] is reported as less than 10 nM.

With `CC(C)(C)OC(=O)NN=Cc1cccc(CN2C(=O)N(Cc3cccc(C=NNC(=O)OC(C)(C)C)c3)C(Cc3ccccc3)C(O)C(O)C2Cc2ccccc2)c1` (stereo not drawn) [15AL] the IC90 (HIV-1 (RF) in MT-2 cells; Table 2d, HIV RNA assay) was “+++ (+++=<10 μg/mL)” and the Ki [1, 4] was 10 to 1000 nM.

In the case of `O=C1N(Cc2ccc(OCc3ccccc3)cc2)C(Cc2ccccc2)C(O)C(O)C(Cc2ccccc2)N1Cc1cccc(-c2cc[nH]n2)c1` (stereo not drawn) [Example 15BY], the IC90 (HIV-1 (RF) in MT-2 cells; [5]) is reported as less than 10 µg/mL and the Ki [1, 6] is reported as less than 10 nM.

`CCOC(=O)c1cccc(CN2C(=O)N(CCCCCO)C(Cc3ccccc3)C(O)C(O)C2Cc2ccccc2)c1` (stereo not drawn) [Example 15VY] gave an IC90 (HIV-1 (RF) in MT-2 cells; [7]) of less than 10 µg/mL and a Ki [1, 8] of less than 10 nM.

For `O=C1N(Cc2ccc(CO)o2)C(Cc2ccccc2)C(O)C(O)C(Cc2ccccc2)N1Cc1ccc(CO)o1` (stereo not drawn) [Example 13X], the IC90 (HIV-1 (RF) in MT-2 cells; [7]) was greater than 100 µg/mL and the Ki [1, 8] was 10 to 1000 nM.

For `O=S1(=O)NC(Cc2ccccc2)C(O)C(O)C(Cc2ccccc2)N1` (stereo not drawn) [23A], the IC90 (HIV-1 (RF) in MT-2 cells; Table 2m) was “++ (++=10 to 100 μg/mL)” and the Ki ([1]; Table 2m, read-out: HPLC Ki) was greater than 1000 nM.
